Entries after “also recorded” stand apart in the source; their conditions may differ. Blank lines part the entries; values can stand above or below the molecule they belong to. Non-standard residues stand in square brackets, D forms with d. Residues, ends and D or L forms follow the SMILES beside them. No end group written: not given here. *: point of attachment. 5TAMRA = CN(C)c1ccc2c(c1)Oc1cc(N(C)C)ccc1C21OC(=O)c2cc(C(=O)*)ccc21; Dap(TAM) = not defined here; Dap = NC[C@H](N)C(=O)O
What was measured:
Nluc::LAT-1 = biological target: T1, Nluc::LAT-1 (Caenorhabditis elegans, UniProt G5EDW2); assay: biochemical; format: binding, C. elegans
T1 construct: Lat-1p::lat-1(1–249)::Nluc::lat-1(250–650)::GFP::lat-1(651–1015); GFP, inserted between residues 650 and 651 (so in the source); expressed in transfected cells; host or cells: transgenic C. elegans (extrachromosomal array, lat-1 knockout background), incised young adult worms
Experimental: All measurements were conducted using synchronized young adult worms (1 day post L4). Individuals were washed twice with HBSS (Hanks’ balanced salt solution with 25 mM HEPES, pH 7.4, 37 °C) and the number of worms/ μl was calculated.
(§1) For luminescence measurements of intact worms, animals (1; 10; 50; 100 or 500) were directly transferred into the wells of a white flat-bottom 384-well plate in 50 μl HBSS buffer. Worms to be cut were pre-washed with M9 + 0.1% Tween to avoid sticking of worms to the dish and subsequently transferred in 2 ml of HBSS. Incisions were made in the middle of the body with a scalpel blade and worms were immediately afterwards transferred with a glass pipette into HBSS buffer on ice. For mechanically cracking, a worm suspension was homogenized in tubes with 150 μl HBSS and six glass beads (Ø = 3 mm) using with a Precellys homogenizer (Bertin instruments, France) for 40 s at 5000 rpm. Samples were placed on ice until further usage.
For BRET binding assays in vivo, the nanoluciferase (Nluc) was applied as energy donor and either peptides labeled with the TAM fluorophore or the mNeonGreen fluorescent protein fused to a receptor served as acceptor.
30 Nluc-expressing worms with incisions in 50 μl BRET buffer were incubated with dissolving buffer or peptide solutions of final concentrations ranging from 0.05–10 μM in a 384-well plate. During a 25 min incubation with gentle shaking, 10 μl Nano-Glo Live Cell Reagent (N2011, Promega, USA) of a 5x stock were added according to manufacturer’s instructions after 15 min to each well. Competition-binding assays were performed similarly, but additionally, unlabeled peptide (final concentrations 0.016–10 μM) was pipetted into each well and 5 μl of a 10x stock Nano-Glo Live cell reagent was applied after 15 min.
Luminescence (L) and fluorescence (F) were detected with a microplate plate reader (Tecan Spark) using the following filter set: donor = 430–470 nm, acceptor = 550–700 nm with 1000 ms integration time. BRET was calculated by dividing F values by L values. For each experiment, the background signal of donor-only cells was subtracted, such that the BRET ratio at 0 μM ligand equals 0.00. In Fig. 3B (left) and Fig. 3D, the mean of n = 4 (NPR-11) or n = 3 (LAT-1) independent, individually background-corrected single experiments is presented.

LAT-1 = assay: cAMP accumulation assay (AlphaScreen), COS-7 cells with LAT-1 plasmid (Fig. S3C); format: cell-based, C. elegans; conditions: for cAMP conc.: LAT-1 plasmid, 100 μM peptide, mean ± SEM of 5 independent assays, DMSO control 4.66 ± 1.72
Experimental: (§2) All in vitro experiments were carried out using either HEK293 cells (Homo sapiens, embryonic kidney, DSMZ (German Collection of Microorganisms and Cell Cultures) ACC 305) or COS-7 cells (African green monkey, cercopithecus aethiops, kidney, DSMZ (German Collection of Microorganisms and Cell Cultures) ACC 60). HEK293 cells were kept in Dulbecco’s Modified Eagle’s Medium (DMEM) with Ham’s F-12 (v/v) and 15% (v/v) heat-inactivated fetal calf serum (FCS), while COS-7 cells were cultured in DMEM with 10% (v/v) FCS and 1% (v/v) Penicillin-Streptomycin. All cells were kept at 37 °C under a humidified atmosphere (5% CO2).
(§3) Gs-coupling of LAT-1, quantified by detection of intracellular cAMP accumulation, was measured using an AlphaScreen cAMP detection kit (PerkinElmer, USA). Briefly, COS-7 cells (15,000 cells/ well) were transfected in 96-well plates with either 200 ng of LAT-1-encoding plasmid or empty vector using Lipofectamine2000 (ThermoFisher Scientific). 48 h post transfection, the cells were stimulated with 100 μM peptide solution in HBSS containing 1 mM 3-isobutyl-1-methylxanthine (IBMX) and 1% DMSO and control buffer without peptide for 30 min at 37 °C. Subsequently, the medium was displaced with lysis buffer (5 mM HEPES, 0.3% Tween-20, 0.1% BSA, 1 mM IBMX, pH 7.6) and plates were frozen at − 80 °C until further use. The following steps were conducted as stated in the manufactures’ protocol of the AlphaScreen cAMP detection kit (PerkinElmer, USA) and an EnVision plate reader (PerkinElmer, USA) was used to detect the fluorescence. The data were analyzed with GraphPad Prism version 6 (GraphPad Software) are presented in x-fold over the corresponding empty vector control.

[1] = tested on: empty vector-transfected COS-7 cells; assay: cAMP accumulation assay (AlphaScreen), COS-7 cells with empty vector (Fig. S3C); format: cell-based, African green monkey; conditions: 100 μM peptide, mean ± SEM of 5 independent assays, DMSO control 5.39 ± 2.15
Experimental: as §2
as §3, with “48 h post transfection, the cells were stimulated with 100 μM peptide solution in HBSS containing 1 mM 3-isobutyl-1-methylxanthine (IBMX) and 1% DMSO and control buffer without peptide for 30 min at 37 °C. Subsequently, the medium was displaced with lysis buffer (5 mM HEPES, 0.3% Tween-20, 0.1% BSA, 1 mM IBMX, pH 7.6) and plates were frozen at − 80 °C until further use.” left out

Nanoluciferase (Nluc) = assay: Luminescence of luciferase substrate in cut Nluc-expressing worms (Fig. 1E); conditions: vs coelenterazine H
Experimental: as §1
50 prepared worms were transferred into a white flat bottom 384-well plate in a total volume of 50 μl HBSS + 25 mM HEPES (pH 7.4; denoted BRET buffer). Immediately after adding coelenterazine H solution (Nanolight/ Prolume, USA) to a final concentration of 4 μM, luminescence was detected using an EnVision plate reader (PerkinElmer, USA) and a NanoBRET Blue 460/80 nm filter with 1000 ms integration time (five repeats every 5 min for long time observation).

[2] = biological target: Nluc::NPR-11::eYFP in membranes of transfected HEK293 cells (C. elegans) (UniProt Q18179)
Nluc::NPR-11::eYFP in membranes of transfected HEK293 cells (C. elegans), sequence (Q18179 whole entry, the tested form may be a part): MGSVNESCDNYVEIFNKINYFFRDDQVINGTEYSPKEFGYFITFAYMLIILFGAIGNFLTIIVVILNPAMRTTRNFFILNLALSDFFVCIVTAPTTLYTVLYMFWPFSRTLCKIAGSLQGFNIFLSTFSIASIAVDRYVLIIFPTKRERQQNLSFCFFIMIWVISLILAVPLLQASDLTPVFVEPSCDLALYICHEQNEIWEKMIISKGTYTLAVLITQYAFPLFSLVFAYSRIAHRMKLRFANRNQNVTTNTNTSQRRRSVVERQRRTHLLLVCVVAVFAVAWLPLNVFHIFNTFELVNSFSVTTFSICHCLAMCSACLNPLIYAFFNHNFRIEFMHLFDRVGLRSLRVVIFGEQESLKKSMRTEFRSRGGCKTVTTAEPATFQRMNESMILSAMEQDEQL

[3] = biological target: Nluc::NPR-11::eYFP in membranes of transfected HEK293 cells (C. elegans) (UniProt Q18179); assay: FRET or BRET; NanoBRET binding in vitro: membranes of HEK293 cells transiently transfected with Nluc::NPR-11::eYFP (0.5 μg total protein), TAM-labeled peptide 10^-12 M to 10^-5 M, BRET buffer with 0.1% BSA and Pefabloc SC, 10 min, room temperature, coelenterazine H 4 μM; three-parameter logistic …
[4] = biological target: Nluc::NPR-11 (Nanoluciferase fused to the extracellular N terminus of the neuropeptide receptor NPR-11), expressed in C. elegans (C. elegans) (UniProt Q18179); assay: FRET or BRET; NanoBRET binding in vivo: 30 Nluc-expressing C. elegans (L4 + 1 day) with incisions in 50 μl BRET buffer (HBSS + 25 mM HEPES, pH 7.4), TAM-labeled peptide 0.05-10 μM, 25 min incubation, Nano-Glo Live Cell Reagent (furimazine); Kd from one-site total and nonspecific binding fit with the scrambled peptide as nonspecific
Nluc::NPR-11 (Nanoluciferase fused to the extracellular N terminus of the neuropeptide receptor NPR-11), expressed in C. elegans (C. elegans), sequence (Q18179 whole entry, the tested form may be a part): as above

[5] = biological target: Nluc::NPR-11 (Nanoluciferase fused to the extracellular N terminus of the neuropeptide receptor NPR-11), expressed in C. elegans (C. elegans) (UniProt Q18179); assay: as above; remark: listed apart in the source
[6] = biological target: T2, Nluc::LAT-1 (lat-1p::lat-1(1-249)::Nluc::lat-1(250-650)::GFP::lat-1(651-1015)), expressed in C. elegans (C. elegans, UniProt G5EDW2 28-1014); assay: cell-based or functional assay
T2 sequence (looked up): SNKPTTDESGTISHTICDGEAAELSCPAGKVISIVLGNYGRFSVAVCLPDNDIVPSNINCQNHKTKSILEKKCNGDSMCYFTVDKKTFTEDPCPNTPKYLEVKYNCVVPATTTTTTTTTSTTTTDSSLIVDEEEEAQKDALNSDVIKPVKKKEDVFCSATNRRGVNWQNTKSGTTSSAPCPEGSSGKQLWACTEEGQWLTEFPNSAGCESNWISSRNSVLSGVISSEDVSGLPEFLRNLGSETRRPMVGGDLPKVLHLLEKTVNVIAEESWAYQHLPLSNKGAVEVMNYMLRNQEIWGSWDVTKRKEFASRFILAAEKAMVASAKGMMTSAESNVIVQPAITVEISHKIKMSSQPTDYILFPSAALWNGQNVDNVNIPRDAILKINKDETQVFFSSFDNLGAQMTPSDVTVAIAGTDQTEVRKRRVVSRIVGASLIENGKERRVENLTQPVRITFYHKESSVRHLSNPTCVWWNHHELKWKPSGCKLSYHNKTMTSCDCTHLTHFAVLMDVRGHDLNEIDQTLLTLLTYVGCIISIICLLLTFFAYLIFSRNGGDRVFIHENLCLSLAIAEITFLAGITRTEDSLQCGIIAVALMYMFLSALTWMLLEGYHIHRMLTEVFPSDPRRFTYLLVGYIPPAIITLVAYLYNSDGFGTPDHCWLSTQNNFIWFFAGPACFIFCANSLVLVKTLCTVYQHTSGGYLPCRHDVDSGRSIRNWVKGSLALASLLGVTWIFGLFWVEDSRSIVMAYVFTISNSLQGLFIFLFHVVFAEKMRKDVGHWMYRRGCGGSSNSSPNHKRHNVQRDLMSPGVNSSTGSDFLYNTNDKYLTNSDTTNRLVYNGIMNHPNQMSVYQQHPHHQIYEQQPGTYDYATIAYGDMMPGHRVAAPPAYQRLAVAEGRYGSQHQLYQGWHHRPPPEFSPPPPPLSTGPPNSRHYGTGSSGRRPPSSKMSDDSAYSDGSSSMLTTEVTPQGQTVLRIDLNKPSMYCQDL

Molecule: CSCC[C@H](NC(=O)[C@H](CC(C)C)NC(=O)[C@@H](NC(=O)[C@H](C)NC(=O)[C@H](Cc1ccccc1)NC(=O)[C@H](Cc1c[nH]cn1)NC(=O)[C@@H](N)[C@@H](C)O)C(C)C)C(=O)N[C@@H](CC(=O)O)C(=O)N[C@H](C(=O)N[C@@H](CCCNC(=N)N)C(=O)NCC(=O)N[C@@H](Cc1c[nH]cn1)C(=O)N[C@@H](CNC(=O)c1ccc2c(c1)C(=O)OC21c2ccc(N(C)C)cc2Oc2cc(N(C)C)ccc21)C(=O)O)C(C)C [TAM-pLAT-1] (H-THFAVLMDVRGH[Dap](5TAMRA)-OH)
Kd (Nluc::LAT-1): > 10000 nM | cAMP accumulation over control (LAT-1; 100 μM, 30 min, 37 °C, IBMX): 1.5 -fold | cAMP conc. (LAT-1): 3.69 ± 0.70 nM | cAMP conc. [1]: 2.86 ± 0.60 nM

Molecule: CSCC[C@H](N)C(=O)N[C@@H](CC(=O)O)C(=O)N[C@H](C(=O)N[C@@H](CCCNC(=N)N)C(=O)N[C@@H](C)C(=O)N[C@H](C(=O)N[C@@H](Cc1c[nH]cn1)C(=O)N[C@@H](Cc1c[nH]cn1)C(=O)NCC(=O)N[C@H](C(=O)N[C@@H](CC(C)C)C(=O)N[C@@H](Cc1ccccc1)C(=O)N[C@@H](CNC(=O)c1ccc2c(c1)C(=O)OC21c2ccc(N(C)C)cc2Oc2cc(N(C)C)ccc21)C(=O)O)C(C)C)C(C)C)[C@@H](C)O [TAM-scrpLAT-1] (H-MDTRAVHHGVLF[Dap](5TAMRA)-OH)
Kd (Nluc::LAT-1): > 10000 nM | BRET ratio relative to TAM-pLAT-1 (Nluc::LAT-1; at 10 μM): one-third higher | cAMP accumulation / receptor activation (LAT-1; 100 μM): did not lead to a cAMP accumulation; also recorded: does not activate the receptor | cAMP conc. (LAT-1): 4.63 ± 0.81 nM | cAMP conc. [1]: 4.45 ± 0.71 nM

Molecule: O=c1c(Cc2ccco2)nc2c(Cc3ccccc3)[nH]c(-c3ccccc3)cn1-2 [furimazine]
luminescence signal over time (Nanoluciferase (Nluc)): stable values over the entire time period; also recorded: lower but more stable luminescence signal

cAMP reporter gene assay, forskolin-stimulated HEK293 cells transfected with NPR-11::eYFP (no Nluc): EC50 of NPR-11 activation [2]: 0.5 nM | Kd [3]: 388 nM | increase in the BRET ratio at 10 μM [4]: 0.08 | Kd [5]: 1500 nM
Molecule: TAM-FLP-34-1 (tetramethylrhodamine-labeled FLP-34-1) (peptide)

cAMP accumulation (AlphaScreen) in COS-7 cells transfected with a LAT-1-encoding plasmid, 100 μM peptide [6]: 1.5 fold over control
Molecule: THFAVLMDVRGH-{Dap(TAM)} (reading uncertain) [TAM-pLAT-1 (TAM-labeled synthetic peptide derived from the tethered agonist sequence of LAT-1)]

From article PMC8805316, “NanoBRET in C. elegans illuminates functional receptor interactions in real time” (BMC Molecular and Cell Biology, 2022)
